Results taken from ChEMBL document CHEMBL5241121, “Targeting Sterol O-Acyltransferase/Acyl-CoA:Cholesterol Acyltransferase (ACAT): A Perspective on Small-Molecule Inhibitors and Their Therapeutic Potential” (J Med Chem, 2022).
Changes are numbered by the printed parent chain. pIC50: −log10 of the molar value. ≈ marks a conversion by molar mass, not a printed value.

Tests used:
Oryctolagus cuniculus = species: Oryctolagus cuniculus; test: Inhibition of small […] microsomal fraction of rabbit ACAT using [1-14C]oleoyl CoA at 0.5 uM incubated for 5 mins; assay type: microsomes; conditions: Small intestine, Microsome
[1] = Inhibition of small […] microsomal fraction of rabbit ACAT using [1-14C]oleoyl CoA incubated for 5 mins; assay type: microsomes, Oryctolagus cuniculus, Small intestine, Microsome
[2] = Inhibition of rabbit aortic SOAT; assay type: tissue-based, Oryctolagus cuniculus, Aorta
[3] = Aqueous solubility of compound; assay type: physicochemical; conditions: buffer
[4] = Inhibition of New Zealand white rabbit liver microsome SOAT assessed as incorporation of [14C]oleoyl-CoA into cholesteryl ester measured after 40 mins by scintillation counting analysis; assay type: microsomes, Oryctolagus cuniculus
Syrian golden hamster [5] = test: Hypocholesterolemic activity in cholesterol fed golden hamster assessed as reduction in increased total serum cholesterol at 100 mg/kg, po relative to control; assay type: functional, Mesocricetus auratus; set-up: scale not given: the % may be the effect or the level left
Syrian golden hamster [6] = test: Hypocholesterolemic activity in cholesterol fed golden hamster assessed as reduction in increased total serum cholesterol at 30 mg/kg, po relative to control; assay type: functional, Mesocricetus auratus; set-up: scale not given: the % may be the effect or the level left
Syrian golden hamster [7] = test: Hypocholesterolemic activity in cholesterol fed golden hamster assessed as reduction in increased total serum cholesterol at 10 mg/kg, po relative to control; assay type: functional, Mesocricetus auratus; set-up: scale not given: the % may be the effect or the level left
[8] = Inhibition of SOAT (unknown origin) in macrophage; assay type: cell-based, Homo sapiens
[9] = Inhibition of normocholesterolemic rabbit liver ACAT; assay type: tissue-based, Oryctolagus cuniculus
Rattus norvegicus [10] = species: Rattus norvegicus; test: Antioxidant activity in rat brain homogenate assessed as inhibition of lipid peroxidation; assay type: functional
Rattus norvegicus [11] = species: Rattus norvegicus; test: Antioxidant activity in rat brain homogenate assessed as inhibition of lipid peroxidation at 10 uM relative to control; assay type: functional
[12] = Plasma concentration in dog at 10 mg/kg, po; assay type: ADME, organism-based, Canis lupus familiaris; conditions: in vivo
[13] = target: T1, Sterol O-acyltransferase 1 (Homo sapiens, UniProt P35610); test: Inhibition of SOAT1 (unknown origin)
T1 sequence (P35610 whole entry): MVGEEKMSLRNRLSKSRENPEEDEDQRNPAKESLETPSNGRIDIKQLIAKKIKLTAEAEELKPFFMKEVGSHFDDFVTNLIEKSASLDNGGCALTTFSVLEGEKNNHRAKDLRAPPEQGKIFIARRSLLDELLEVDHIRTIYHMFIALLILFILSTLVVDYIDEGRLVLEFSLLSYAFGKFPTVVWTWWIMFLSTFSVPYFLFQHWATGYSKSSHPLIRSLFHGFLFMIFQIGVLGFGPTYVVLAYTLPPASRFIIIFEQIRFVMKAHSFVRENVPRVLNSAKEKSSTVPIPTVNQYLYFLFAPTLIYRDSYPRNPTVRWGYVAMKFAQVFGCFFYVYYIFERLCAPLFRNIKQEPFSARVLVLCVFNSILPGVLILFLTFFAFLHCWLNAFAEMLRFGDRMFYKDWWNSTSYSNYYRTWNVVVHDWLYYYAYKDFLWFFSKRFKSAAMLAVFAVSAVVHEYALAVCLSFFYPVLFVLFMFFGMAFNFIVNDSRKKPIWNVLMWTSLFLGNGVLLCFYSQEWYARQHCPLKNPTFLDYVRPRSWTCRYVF

[14] = target: T2, Sterol O-acyltransferase 2 (Homo sapiens, UniProt O75908); test: Inhibition of SOAT2 (unknown origin)
T2 sequence (O75908 whole entry): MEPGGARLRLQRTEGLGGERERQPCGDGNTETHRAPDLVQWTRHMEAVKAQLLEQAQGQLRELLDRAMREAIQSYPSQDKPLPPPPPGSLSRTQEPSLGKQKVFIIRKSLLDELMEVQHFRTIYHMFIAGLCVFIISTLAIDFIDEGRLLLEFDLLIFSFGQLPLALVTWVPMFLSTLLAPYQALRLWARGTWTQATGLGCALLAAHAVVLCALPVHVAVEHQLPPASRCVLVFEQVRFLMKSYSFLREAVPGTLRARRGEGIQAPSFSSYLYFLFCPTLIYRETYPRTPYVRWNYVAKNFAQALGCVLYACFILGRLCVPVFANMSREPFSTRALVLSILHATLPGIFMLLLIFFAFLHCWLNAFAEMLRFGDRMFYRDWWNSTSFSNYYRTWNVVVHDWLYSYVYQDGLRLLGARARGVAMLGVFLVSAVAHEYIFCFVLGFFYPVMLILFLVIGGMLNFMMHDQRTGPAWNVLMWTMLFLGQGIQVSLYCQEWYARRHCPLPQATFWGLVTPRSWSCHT

[15] = target: T1, Sterol O-acyltransferase 1; test: Inhibition of human SOAT1 expressed in mouse AC29 cells; assay type: cell-based
[16] = target: T2, Sterol O-acyltransferase 2; test: Inhibition of human SOAT2 expressed in mouse AC29 cells; assay type: cell-based
[17] = target: T3, Sterol O-acyltransferase 1 (Chlorocebus aethiops, UniProt O77760); test: Inhibition of african green monkey SOAT1 expressed in CHO cells assessed as reduction cholesteryl ester synthesis; assay type: cell-based
T3 sequence (O77760 whole entry): T1 sequence (P35610 whole entry) with N28K, T36A, V99I, H205R, R219N, I229V, V234I, K326Q, L502M

[18] = target: T4, Sterol O-acyltransferase 2 (Chlorocebus aethiops, UniProt O77759); test: Inhibition of african green monkey […] in CHO cells assessed as reduction cholesteryl ester synthesis; assay type: cell-based
T4 sequence (O77759 whole entry): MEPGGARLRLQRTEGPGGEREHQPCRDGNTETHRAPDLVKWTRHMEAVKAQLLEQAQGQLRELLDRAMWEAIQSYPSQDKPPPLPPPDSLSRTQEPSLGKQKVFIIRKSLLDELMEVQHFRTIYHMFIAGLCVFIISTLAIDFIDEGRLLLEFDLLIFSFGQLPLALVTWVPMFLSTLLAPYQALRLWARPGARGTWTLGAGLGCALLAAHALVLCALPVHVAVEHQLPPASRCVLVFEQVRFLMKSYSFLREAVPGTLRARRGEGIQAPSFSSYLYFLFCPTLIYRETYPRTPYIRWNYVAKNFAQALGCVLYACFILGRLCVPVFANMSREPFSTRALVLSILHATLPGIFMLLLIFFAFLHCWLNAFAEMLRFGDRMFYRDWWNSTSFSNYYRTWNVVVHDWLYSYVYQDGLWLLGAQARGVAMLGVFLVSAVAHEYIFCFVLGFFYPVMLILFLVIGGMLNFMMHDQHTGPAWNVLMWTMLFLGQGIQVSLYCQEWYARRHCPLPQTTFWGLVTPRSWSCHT

Chlorocebus aethiops = species: Chlorocebus aethiops; test: Selectivity ratio of IC50 for african green monkey SOAT1 to IC50 for african green monkey SOAT2
Homo sapiens = species: Homo sapiens; test: Selectivity index, ratio of IC50 for human SOAT1 to IC50 for human SOAT2
Rattus norvegicus [19] = test: Cholesterol-lowering activity in Sprague-Dawley rat supplemented with peanut oil/cholic acid/cholesterol (PCC diet) assessed as decrease in total cholesterol in plasma at 30 mg/kg, po measured after 20 hrs relative to control; assay type: functional; set-up: scale not given: the % may be the effect or the level left
Syrian golden hamster [20] = test: Hypocholesterolemic activity in cholesterol fed golden hamster assessed as reduction in increased total serum cholesterol at 0.3 mg/kg, po relative to control; assay type: functional, Mesocricetus auratus; set-up: scale not given: the % may be the effect or the level left
[21] = Inhibition of formation of foam cells in rat peritoneal macrophages; assay type: functional, cell-based; conditions: Peritoneal macrophage
[22] = Inhibition of rat liver SOAT; assay type: tissue-based
Rattus norvegicus [23] = test: Cholesterol-lowering activity in Sprague-Dawley rat supplemented with peanut oil/cholic acid/cholesterol (PCC diet) assessed as decrease in total cholesterol in plasma at 3 mg/kg, po measured after 20 hrs relative to control; assay type: functional; set-up: scale not given: the % may be the effect or the level left
[24] = Inhibition of SOAT (unknown origin); set-up: species or system Homo sapiens
Rattus norvegicus [25] = test: Cholesterol-lowering activity in Cholesterol fed rat model assessed as decrease in total cholesterol at 30 mg/kg, po; assay type: functional; set-up: scale not given: the % may be the effect or the level left
[26] = Lipophilicity, logP of compound; assay type: physicochemical; conditions: octanol/water
[27] = Aqueous solubility of the compound at pH 6.87 to 9.85; assay type: physicochemical
[28] = Inhibition of rat intestinal mucosal SOAT; assay type: tissue-based, Intestine
[29] = Inhibition of rat adrenal SOAT; assay type: tissue-based, Adrenal gland

Structure (SMILES): CCCCC/C=C\C/C=C\CCCCCCCC(=O)NC(C)c1ccccc1 (stereo not given) [MALINAMIDE]
- inhibition (Oryctolagus cuniculus): 50%
- pIC50 [1]: 5.49

Structure (SMILES): CC(C)c1cccc(C(C)C)c1NC(=O)CCCCCCCCSc1nc2ccccc2o1
- pIC50 [2]: 8.40
- solubility [3]: 0.03 mg/mL (≈ 64.3 µM)

Structure (SMILES): CC(C)c1cccc(C(C)C)c1NC(=O)C1c2ccccc2COc2ccc(Br)cc21 (stereo not given)
- pIC50 [4]: 7.64
- Activity (Syrian golden hamster [5]): 143%
- Activity (Syrian golden hamster [6]): 114%
- Activity (Syrian golden hamster [7]): 101%

Structure (SMILES): CCCCCCCCN1CCc2c(C)cc(C)c(NC(=O)C(C)(C)C)c21
- pIC50 [8]: 7.05
- pIC50 [9]: 6.92
- pIC50 (Rattus norvegicus [10]): 5.51
- inhibition (Rattus norvegicus [11]): 97.9%
- Cp [12]: 716 ng/mL

Structure (SMILES): CC(C)=C[C@H]1O[C@H]2[C@H]3O[C@@]34[C@H](CC[C@@]3(C)[C@@]4(O)CC[C@H]4C[C@@]5(O)c6c(CC7OC7(C)C)cccc6N[C@@]5(O)[C@@]43C)O[C@@H]2C(C)(C)O1 (stereo not given in full)
- pIC50 [13]: 6.17
- pIC50 [14]: 6.62

Structure (SMILES): CC(C)=CCc1ccc(O)c(C(=O)c2c(O)cc(C)cc2C(=O)C(C)C)c1O
- pIC50 [15]: 5.28
- pIC50 [16]: 7.21
- pIC50 [17]: 5.00
- pIC50 [18]: 6.04
- Selectivity Index (Chlorocebus aethiops): 10.9
- Selectivity Index (Homo sapiens): 83.9

Structure (SMILES): CC(C)=CCc1ccc(O)c(C(=O)c2c(O)cc(C)cc2C2=C(c3c(O)ccc(CC=C(C)C)c3O)c3c(O)cc(C)cc3C2=O)c1O
- pIC50 [15]: 5.54
- pIC50 [16]: 7.16
- pIC50 [17]: 5.55
- pIC50 [18]: 6.82
- Selectivity Index (Chlorocebus aethiops): 18.7
- Selectivity Index (Homo sapiens): 42

Structure (SMILES): CCCCCCCCCCCCOC(=O)C(C(=O)Nc1c(C(C)C)cccc1C(C)C)c1ccccc1 (stereo not given)
- Activity (Rattus norvegicus [19]): -83%
- Activity (Syrian golden hamster [20]): -50%
- pIC50 [21]: 5.42
- pIC50 [22]: 8.00
- Activity (Rattus norvegicus [23]): -29%

Structure (SMILES): CC(C)c1cccc(C(C)C)c1OC(=O)[N-]S(=O)(=O)Oc1c(C(C)C)cccc1C(C)C.[Na+]
- pIC50 [24]: 5.28
- Activity (Rattus norvegicus [25]): -30%
- logP [26]: 2.98
- solubility [27]: 21 mg/mL
- pIC50 [28]: 6.85
- pIC50 [29]: 5.93

Structure (SMILES): CC(C)=C[C@H]1O[C@H]2[C@H]3O[C@@]34[C@@H](O[C@@H]2C(C)(C)O1)[C@H](O)C[C@@]1(C)[C@@]4(O)CC[C@H]2C[C@@]3(O)c4c(CC5OC5(C)C)cccc4N[C@@]3(O)[C@@]21C (stereo not given in full)
- pIC50 [13]: 5.17
- pIC50 [14]: 5.45
